# According to patent EP3556767A1, “CELL PENETRATING PEPTIDES” (Universidade De Santiago De Compostela, priority 2018, dated 2019):
# Where a SMILES comes first, the peptide text is derived from it. The star is where a group is joined. 5TAMRA = CN(C)c1ccc2c(c1)Oc1cc(N(C)C)ccc1C21OC(=O)c2cc(C(=O)*)ccc21; X1 = O=C(CON=CCO[C@H]1O[C@H](CO)[C@@H](O)[C@H](O)[C@@H]1O)*; X2 = CC(C)=NOCC(=O)*; Ahx = NCCCCCC(=O)O
# What was measured:
# HeLa cells [1] = experiment: Viability in the presence of saporin (MTT); type: cell-based; conditions: up to 30 µM, 1 h incubation, Figure 9
# Method: Saporin (253 aa, 28 kDa) is a toxic protein from the group of the ribosome-inactivating proteins (RIP), which is not capable of reaching the cytosol by itself, although it can be passively internalized by pinocytosis if it is found in the culture medium, being retained in endosomes. Incubation of the cells with this protein in the presence of an endosomolytic agent causes the release of the protein to the cytosol and cell death.
# For the experiment, HeLa cells were incubated in a 96-well plate with 10 µg/mL of saporin, and increasing concentrations of the P8 and R8 acetylated peptides.
# The cells were co-incubated with the protein and peptide for 1 h in culture medium without serum or antibiotics, at which time the compounds were removed, washed and complete medium was added for 6 h, to allow the maturation of the endosomes and the escape of the toxin. At that time, MTT (tetrazolium salt) was added, cells were further incubated for 3 h, and the medium removed before solubilizing the formazan salt with DMSO. This viability test measures the reduction of MTT to formazan by mitochondrial activity, which can then be quantified by absorbance.
# HeLa cells [2] = experiment: Cell transport experiments (fluorescence microscopy, co-localization); type: cell-based; conditions: for transport of ConA: ConA labelled with Alexa Fluor-647
# Method: HeLa cells growing on four chamber glass bottom dishes were washed with HEPES-Krebs-Ringer (HKR) buffer (5 mM HEPES, 137 mM NaCl, 2.68 mM KCI, 2.05 mM MgCl2, 1.8 mM CaCl2, pH 7.4) and nuclei were stained by incubation with 1 µM Hoechst 33342 in HKR for 30 min. The CPP and protein were diluted in HKR and incubated for 7 min at room temperature to allow the formation of the complexes. Cells were washed with HKR and incubated with the complexes for another 30 min. Cells were washed again to remove excess peptide before performing epifluorescence microscopy using a Nikon Eclipse Ti-E inverted microscope or confocal microscopy with a Leica SP5 microscope. Images were analyzed with ImageJ and the co-localization parameters (Manders coefficients) were calculated using the Coloc2 plugin selecting the Costes method of threshold regression.
# [3] = system: HeLa cells stably transfected with a plasmid carrying the LoxP-DsRED-STOP-LoxP-eGFP insert; experiment: Cre recombinase protein cytosolic delivery (Cre Reporter system); type: cell-based; conditions: 1 µM Cre recombinase protein
# Method: In order to further test the capabilities of the CPPs of the invention to release macromolecules into the cytosol, a Cre recombinase delivery assay was done in the presence of P8. HeLa cells stably transfected with a plasmid carrying the LoxP-DsRED-STOP-LoxP-eGFP insert (Cre Reporter system) were incubated with 1 µM Cre recombinase protein and CPPs P8 or R8 at different concentrations.
# These cells express normally the dsRED protein (red fluorescence), but when the Cre recombinase protein removes the dsRED ORF by recombination, the eGFP gene (green fluorescence) is expressed instead. Thus, the percentage of cells expressing eGFP can be used as a measure of the percentage of cells where the Cre Recombinase had been effectively released into the cytosol.
# endosomes = experiment: Dextran escape from endosomes; type: cell-based; conditions: dextran 250 µg/ml; Figure 11
# Method: Dextran is a polysaccharide (in this case labeled with a green fluorescent probe) known to internalize cells through the endocytic pathway. Thus, if the CPPs of the invention are capable of inducing release of dextrane from endosomes into the cytosol, the cell will display diffuse green fluorescence. The experiment was run by incubating dextran (250 µg/ml) in the presence of 5 µM of a CPP: (i) P8 marked with TAMRA, (ii) acetylated P8, and (iii) R8 as comparison.
# [4] = Circular dichroism, percentage of helicity; type: physicochemical; conditions: 40°C; for % Helicity in Liposomes: egg yolk phosphatidylcholine liposomes
# Method: Circular Dichroism (CD) measurements were performed with a Jasco J-1100 CD Spectrometer equipped with a Jasco MCB-100 Mini Circulation Bath for temperature control.
# Circular dichroism measurements were carried out with the following settings: acquisition range: 300-190 nm; band width: 1.0 nm; accumulation: 3 scans; data pitch: 1 nm; CD scale 200 mdeg/1.0 dOD; D.I.T. (Data Integration Time): 1 s; scanning mode: continuous; scanning speed: 200 nm/min. Measurements were done from 10 °C to 60 °C (data interval: 10 °C; temp. gradient 5 °C/min) in a quartz cell of 0.2 cm path length at a final volume of 0.5 mL (H2O or TFE) with a final peptide concentration of 200 µM.
# The results are expressed as the mean residue molar ellipticity [θ]MRt with units of degrees·cm^2.dmol^-1 and calculated using the equation S1.
# The percentage of helicity was calculated using the equation S2. For the measurements in liposomes, samples were prepared by drying under reduced pressure L-α-phosphatidylcholine (16.7 µL, 25 mg/mL solution in CHCl3) and peptide (300 µL, 100 µM) in TFE to obtain a ratio lipid/peptide of 18:1 in a 10 mL round bottomed flask. The mixture was concentrated in a rotary evaporator to dryness, forming a film. The lipid/peptide mixture were suspended in HKR buffer (300 µL) to a final peptide concentration 100µM and sonicated for 45 min until a clear solution was obtained. Spectra were recorded in a 0.2 cm path length quartz cell. [formula]
# Equation S1: Formula to calculate the ellipticity. θ is the ellipticity (mdeg), C is the peptide concentration (M) and I is the cell path length (cm). helicity % = (θMRt222nm−2340)/(30300) × 100 [formula]
# Equation S2: Formula to calculate the percent of helicity in where the molar ellipticity at 222 nm is an absolute value.
# HeLa cells [5] = experiment: Quantification of the uptake by flow cytometry; type: cell-based; conditions: TAMRA labelled peptides, 1, 3, 5, 7, 10 µM; Figure 3
# Method: For internalization standard assays we measured the amount of peptide fluorescence in cells by flow cytometry. Briefly, semiconfluent monolayers of HeLa cells seeded the day before were washed twice with HKR before incubation with different concentrations (1, 3, 5, 7, 10 µM) of TAMRA labelled peptides diluted in cell culture medium without serum for 1 hour at 37 °C . Then, cells were trypsinized with 100 µL of Trypsin-EDTA (Gibco) for 10 min at 37 °C, and trypsin neutralized with 100 µL of 2 % FBS in PBS with 5 mM EDTA. Pipetting broke cell clumps and the analysis was done in a Guava easyCyte™ cytometer. TAMRA levels were determined by excitation at 532 nm and detection at 575/25 nm. For the analysis, cells with typical FSC and SSC parameters were selected, and median fluorescence intensity was calculated for each sample. Data analysis was performed with InCyte software included in GuavaSoft 3.2 (Millipore).
# The results of uptake of CPP P8 in HeLa, A-549 and SF9 are depicted in Figure 5: Uptake quantification by flow cytometry in three different cell lines: HeLa cells, A549 cells and Sf9 cells. Data points were collected in triplicate at six different concentrations (0, 1, 3, 5, 7, 10 µM). Cells were treated in DMEM (-) (HeLa, A549), or Sf-900-II (-) (Sf9) for 1 hour prior to trypsinization and cytometry quantification. Error bars indicate SD of three replicates.
# [6] = co-localization of peptide and ConA
molecule,measurement,setting,value
"CC(C)C[C@H](NC(=O)c1ccc2c(c1)C(=O)OC21c2ccc(N(C)C)cc2Oc2cc(N(C)C)ccc21)C(=O)N[C@@H](CCCNC(=N)N)C(=O)N[C@@H](C)C(=O)N[C@@H](CC(C)C)C(=O)N[C@@H](C)C(=O)N[C@@H](C)C(=O)N[C@@H](CC(C)C)C(=O)N[C@@H](C)C(=O)N[C@@H](CCCNC(=N)N)C(=O)N[C@@H](C)C(=O)N[C@@H](C)C(=O)N[C@@H](C)C(=O)N[C@@H](C)C(=O)N[C@@H](C)C(=O)N[C@@H](C)C(=O)N[C@@H](CCCNC(=N)N)C(N)=O [P8, TmL R ALAALA R A6 R] (5TAMRA-LRALAALARAAAAAAR-NH2)","toxicity to HeLa cells, peptide alone",HeLa cells [1],little or no toxicity
CC(C)C[C@H](NC(=O)[C@H](CCCNC(=N)N)NC(=O)[C@H](CCCCNC(=O)CON=CCO[C@H]1O[C@H](CO)[C@@H](O)[C@H](O)[C@@H]1O)NC(=O)[C@H](CC(C)C)NC(=O)[C@H](CCCNC(=N)N)NC(=O)[C@H](CCCNC(=N)N)NC(=O)[C@H](CC(C)C)NC(=O)[C@H](CC(C)C)NC(=O)[C@H](CCCNC(=N)N)NC(=O)[C@H](CCCNC(=N)N)NC(=O)[C@H](CC(C)C)NC(=O)[C@H](CCCCNC(=O)CON=CCO[C@H]1O[C@H](CO)[C@@H](O)[C@H](O)[C@@H]1O)NC(=O)[C@H](CCCNC(=N)N)NC(=O)CCCCCNC(=O)c1ccc2c(c1)C(=O)OC21c2ccc(N(C)C)cc2Oc2cc(N(C)C)ccc21)C(N)=O [TmP(Man)2] ({5TAMRA-Ahx}-RK(X1)LRRLLRRLK(X1)RL-NH2),transport of ConA,HeLa cells [2],the ConA cellular uptake was observed
same,Manders coefficients (peptide and protein co-localization),HeLa cells [2]; approximate value given in the text,~0.6
same,Manders' tM1 (Peptide),HeLa cells [2]; [6],0.66
same,Manders' tM2 (Protein),HeLa cells [2]; [6],0.63
"CC(C)=NOCC(=O)NCCCC[C@H](NC(=O)[C@H](CCCNC(=N)N)NC(=O)CCCCCNC(=O)c1ccc2c(c1)C(=O)OC21c2ccc(N(C)C)cc2Oc2cc(N(C)C)ccc21)C(=O)N[C@@H](CC(C)C)C(=O)N[C@@H](CCCNC(=N)N)C(=O)N[C@@H](CCCNC(=N)N)C(=O)N[C@@H](CC(C)C)C(=O)N[C@@H](CC(C)C)C(=O)N[C@@H](CCCNC(=N)N)C(=O)N[C@@H](CCCNC(=N)N)C(=O)N[C@@H](CC(C)C)C(=O)N[C@@H](CCCCNC(=O)CON=C(C)C)C(=O)N[C@@H](CCCNC(=N)N)C(=O)N[C@@H](CC(C)C)C(N)=O [TmP(Acetone)2, reference compound] ({5TAMRA-Ahx}-RK(X2)LRRLLRRLK(X2)RL-NH2)",transport of ConA,HeLa cells [2],did not complex or transport ConA
"Ac-LRALAALARAAAAAAR-NH2 [acetylated P8, AcL R ALAALA R A6 R]",peptide concentration at the maximum percentage of eGFP expressing cells,[3],10 µM
same,maximum percentage of eGFP expressing cells,[3]; Figure 10,35%
same,concentration at which the peptide starts to release the dextran into the cytosol,endosomes,10 µM
TmHexL R A5L R A5L R [P5],% Helicity in water,[4],19.3%
same,% Helicity in Liposomes,[4],29.5%
same,uptake in living HeLa cells,HeLa cells [5],perform better in the uptake test
TmHexA R AALLAA R AALA3 R [P3],% Helicity in water,[4],21.7%
same,% Helicity in Liposomes,[4],12.7%
TmHexA R ALAALA R ALA4 R [P6],% Helicity in water,[4],35.1%
same,% Helicity in Liposomes,[4],29.9%
same,uptake in living HeLa cells,HeLa cells [5],perform better in the uptake test
